Measured values taken from PubChem BioAssay AID1963436 (Molecular Pharmacology Branch, DTP, NCI, 2024).
pIC50: −log10 of the molar value.

Tested on: OVCAR-5 complex spheroid (HUVEC/MSC), viability % T/C
Test: Anticancer human tumor OVCAR-5 cell line growth inhibition [Asc];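 note: spheroids exposed to agents for 7 days before readout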;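 for viability, T/C: 100% = DMSO vehicle-treated wells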
Conditions: for pIC50: curve of first compound; for viability, T/C: stronger effect = lower value
Outline: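 Tumor cells were grown as multicellular spheroids with stromal HUVEC and mesenchymal stem cells and treated singly or in combination. Concentrations fell in half-log steps from the clinical Cmax, or from 10 microM where none was known.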

SMILES: Cc1nc(N2CCC3(CC2)COC(C)C3N)c(CO)nc1Sc1ccnc(N)c1Cl (stereo not given) + CCN1C(C(=O)NC23CCC(C(=O)O)(CC2)CC3)C(c2cccc(Cl)c2F)C2(C(=O)Nc3cc(Cl)ccc32)C12CCCCC2
- pIC50 (second compound 0.03 µM): < 5.52
- pIC50 (second compound 0.0949 µM): < 5.52
- pIC50 (second compound 0.3 µM): < 5.52
- pIC50 (second compound 0.949 µM): < 5.52
- pIC50 (second compound 3 µM): < 5.52
- viability, T/C (second compound 0.03 µM, first compound 0.00949 µM): 104%
- viability, T/C (second compound 0.03 µM, first compound 0.03 µM): 101%
- viability, T/C (second compound 0.03 µM, first compound 0.0949 µM): 79.8%
- viability, T/C (second compound 0.03 µM, first compound 0.3 µM): 79.8%
- viability, T/C (second compound 0.03 µM, first compound 0.949 µM): 71.4%
- viability, T/C (second compound 0.03 µM, first compound 3 µM): 60.6%
- viability, T/C (second compound 0.0949 µM, first compound 0.00949 µM): 108%
- viability, T/C (second compound 0.0949 µM, first compound 0.03 µM): 97.1%
- viability, T/C (second compound 0.0949 µM, first compound 0.0949 µM): 89.4%
- viability, T/C (second compound 0.0949 µM, first compound 0.3 µM): 82%
- viability, T/C (second compound 0.0949 µM, first compound 0.949 µM): 70.8%
- viability, T/C (second compound 0.0949 µM, first compound 3 µM): 56%
- viability, T/C (second compound 0.3 µM, first compound 0.00949 µM): 112%
- viability, T/C (second compound 0.3 µM, first compound 0.03 µM): 105%
- viability, T/C (second compound 0.3 µM, first compound 0.0949 µM): 86.1%
- viability, T/C (second compound 0.3 µM, first compound 0.3 µM): 72.4%
- viability, T/C (second compound 0.3 µM, first compound 0.949 µM): 64.2%
- viability, T/C (second compound 0.3 µM, first compound 3 µM): 60.8%
- viability, T/C (second compound 0.949 µM, first compound 0.00949 µM): 107%
- viability, T/C (second compound 0.949 µM, first compound 0.03 µM): 105%
- viability, T/C (second compound 0.949 µM, first compound 0.0949 µM): 96.3%
- viability, T/C (second compound 0.949 µM, first compound 0.3 µM): 73.6%
- viability, T/C (second compound 0.949 µM, first compound 0.949 µM): 69.5%
- viability, T/C (second compound 0.949 µM, first compound 3 µM): 70.3%
- viability, T/C (second compound 3 µM, first compound 0.00949 µM): 104%
- viability, T/C (second compound 3 µM, first compound 0.03 µM): 110%
- viability, T/C (second compound 3 µM, first compound 0.0949 µM): 99.3%
- viability, T/C (second compound 3 µM, first compound 0.3 µM): 79%
- viability, T/C (second compound 3 µM, first compound 0.949 µM): 68.4%
- viability, T/C (second compound 3 µM, first compound 3 µM): 65.9%

SMILES: C=C(F)C(=O)N1CCN(c2nc(OCC3CCCN3C)nc3c2CCN(c2cccc4cccc(Cl)c24)C3)CC1CC#N (stereo not given) + Cc1c(S(C)(=O)=O)c(-c2cc(F)cc(N3CCN(c4ccc(NS(=O)(=O)c5ccc(NC(CCN6CCC(C(=O)OCCCP(=O)(O)O)CC6)CSc6ccccc6)c(S(=O)(=O)C(F)(F)F)c5)cc4)CC3)c2)c(-c2ccc(Cl)cc2)n1C(C)C
- pIC50 (second compound 0.1 µM): 6.10
- pIC50 (second compound 0.316 µM): 6.23
- pIC50 (second compound 1 µM): 6.19
- pIC50 (second compound 3.16 µM): 6.25
- pIC50 (second compound 10 µM): 6.19
- viability, T/C (second compound 0.1 µM, first compound 0.0316 µM): 88.7%
- viability, T/C (second compound 0.1 µM, first compound 0.1 µM): 96.8%
- viability, T/C (second compound 0.1 µM, first compound 0.316 µM): 79.9%
- viability, T/C (second compound 0.1 µM, first compound 1 µM): 43.7%
- viability, T/C (second compound 0.1 µM, first compound 3.16 µM): 1.2%
- viability, T/C (second compound 0.1 µM, first compound 10 µM): 0.31%
- viability, T/C (second compound 0.316 µM, first compound 0.0316 µM): 93.5%
- viability, T/C (second compound 0.316 µM, first compound 0.1 µM): 98%
- viability, T/C (second compound 0.316 µM, first compound 0.316 µM): 78.3%
- viability, T/C (second compound 0.316 µM, first compound 1 µM): 25.4%
- viability, T/C (second compound 0.316 µM, first compound 3.16 µM): 1.91%
- viability, T/C (second compound 0.316 µM, first compound 10 µM): 0.12%
- viability, T/C (second compound 1 µM, first compound 0.0316 µM): 81.5%
- viability, T/C (second compound 1 µM, first compound 0.1 µM): 89%
- viability, T/C (second compound 1 µM, first compound 0.316 µM): 83.3%
- viability, T/C (second compound 1 µM, first compound 1 µM): 29.9%
- viability, T/C (second compound 1 µM, first compound 3.16 µM): 0.65%
- viability, T/C (second compound 1 µM, first compound 10 µM): 0.74%
- viability, T/C (second compound 3.16 µM, first compound 0.0316 µM): 90%
- viability, T/C (second compound 3.16 µM, first compound 0.1 µM): 92.3%
- viability, T/C (second compound 3.16 µM, first compound 0.316 µM): 80.1%
- viability, T/C (second compound 3.16 µM, first compound 1 µM): 19.6%
- viability, T/C (second compound 3.16 µM, first compound 3.16 µM): 0.82%
- viability, T/C (second compound 3.16 µM, first compound 10 µM): 0.14%
- viability, T/C (second compound 10 µM, first compound 0.0316 µM): 111%
- viability, T/C (second compound 10 µM, first compound 0.1 µM): 131%
- viability, T/C (second compound 10 µM, first compound 0.316 µM): 106%
- viability, T/C (second compound 10 µM, first compound 1 µM): 15.1%
- viability, T/C (second compound 10 µM, first compound 3.16 µM): 0.46%
- viability, T/C (second compound 10 µM, first compound 10 µM): 0.21%

SMILES: C=C(F)C(=O)N1CCN(c2nc(OCC3CCCN3C)nc3c2CCN(c2cccc4cccc(Cl)c24)C3)CC1CC#N (stereo not given) + CCN1C(C(=O)NC23CCC(C(=O)O)(CC2)CC3)C(c2cccc(Cl)c2F)C2(C(=O)Nc3cc(Cl)ccc32)C12CCCCC2
- pIC50 (second compound 0.03 µM): 5.86
- pIC50 (second compound 0.0949 µM): 5.90
- pIC50 (second compound 0.3 µM): 5.89
- pIC50 (second compound 0.949 µM): 5.89
- pIC50 (second compound 3 µM): 5.89
- viability, T/C (second compound 0.03 µM, first compound 0.0316 µM): 108%
- viability, T/C (second compound 0.03 µM, first compound 0.1 µM): 94.2%
- viability, T/C (second compound 0.03 µM, first compound 0.316 µM): 90.1%
- viability, T/C (second compound 0.03 µM, first compound 1 µM): 67.2%
- viability, T/C (second compound 0.03 µM, first compound 3.16 µM): 9.46%
- viability, T/C (second compound 0.03 µM, first compound 10 µM): 0.18%
- viability, T/C (second compound 0.0949 µM, first compound 0.0316 µM): 102%
- viability, T/C (second compound 0.0949 µM, first compound 0.1 µM): 104%
- viability, T/C (second compound 0.0949 µM, first compound 0.316 µM): 87.7%
- viability, T/C (second compound 0.0949 µM, first compound 1 µM): 62.4%
- viability, T/C (second compound 0.0949 µM, first compound 3.16 µM): 9.56%
- viability, T/C (second compound 0.0949 µM, first compound 10 µM): 0.18%
- viability, T/C (second compound 0.3 µM, first compound 0.0316 µM): 101%
- viability, T/C (second compound 0.3 µM, first compound 0.1 µM): 122%
- viability, T/C (second compound 0.3 µM, first compound 0.316 µM): 101%
- viability, T/C (second compound 0.3 µM, first compound 1 µM): 62.7%
- viability, T/C (second compound 0.3 µM, first compound 3.16 µM): 7.84%
- viability, T/C (second compound 0.3 µM, first compound 10 µM): 0.2%
- viability, T/C (second compound 0.949 µM, first compound 0.0316 µM): 109%
- viability, T/C (second compound 0.949 µM, first compound 0.1 µM): 110%
- viability, T/C (second compound 0.949 µM, first compound 0.316 µM): 105%
- viability, T/C (second compound 0.949 µM, first compound 1 µM): 60.4%
- viability, T/C (second compound 0.949 µM, first compound 3.16 µM): 11.3%
- viability, T/C (second compound 0.949 µM, first compound 10 µM): 0.18%
- viability, T/C (second compound 3 µM, first compound 0.0316 µM): 115%
- viability, T/C (second compound 3 µM, first compound 0.1 µM): 112%
- viability, T/C (second compound 3 µM, first compound 0.316 µM): 104%
- viability, T/C (second compound 3 µM, first compound 1 µM): 61.8%
- viability, T/C (second compound 3 µM, first compound 3.16 µM): 10.2%
- viability, T/C (second compound 3 µM, first compound 10 µM): 1.38%
